Experimental data: patent publication US9675627B2, “Dosing regimens for treating and/or preventing cerebral amyloidoses” (Amicus Therapeutics, Inc., priority 2014, dated 2017)

How the values were obtained:
β-hex = biological target: T1, β-hex; experiment: β-hex enzymatic inhibition in fibroblast lysate (4-MU substrate); type: biochemical, human
T1 construct: other: pH 5; other: pH 7
Excerpt: Enzymatic activity measurements were done in duplicate.

[1] = test system: ganglioside-bound Aβ (GAβ); experiment: GAβ immunohistochemistry (clone 4396C); type: in vivo, Dutch APP^E693Q transgenic mice; settings: 100 mg/kg, 3 months
Experimental: (§1) The generation and characterization of Dutch APPE693Q mice transgenic mice is described in Gandy, S., et al. Days to criterion as an indicator of toxicity associated with human Alzheimer amyloid-beta oligomers. Annals of neurology 68, 220-230 (2010). 3-month-old male Dutch APP^E693Q mice transgenic mice were orally gavaged 5 days/week with either vehicle (water) (n=15) or 3, 10, 30 or 100 mg/kg AdDNJ for 3 months (n=13). All animal studies were approved and conducted in accordance with the Institutional Animal Care and Usage Committee. Mice were kept in a pathogen-free environment, on a 12-hour light/dark cycle and given ad libitum access to food and water. At 6 month of age treatment groups, and a 3-month-old untreated baseline group (n=15), were cognitively assessed in the NOR, EPM and FC tests. 48 hours following the final dose mice were perfused with ice-cold 1×PBS. The brain was removed and dissected into two hemispheres. One half was snap-frozen on dry ice and stored at −80° C. for biochemistry; the other half was post-fixed in 4% paraformaldehyde then sagittally sectioned on a vibratome into 30 μm sections and stored at 4° C. in storage buffer until histological analyses.
Aβ was assessed via free-floating immunohistochemistry using mAb 6E10 (1:1000, Covance) as previously described20. GAβ was assessed via free-floating immunohistochemistry using mouse anti-GAβ, clone 4396C (1:100), a gift from Dr. Katsuhiko Yanagisawa as previously described19. Images were captured on an Olympus BX61 upright microscope with an attached Olympus DP71 camera. Integrated density of GAβ staining was measured using Image J (National Institute of Health, Bethesda, Md.).

[2] = Single dose pharmacokinetic study (oral gavage), plasma and brain LC-MS/MS; type: in vivo, C57BL/J6 mice
Experimental: 5-week-old C57BL/J6 mice (n=5 mice/group, Taconic Farms, Germantown, N.Y.) were administered vehicle (water) or AdDNJ (30, 100 or 300 mg/kg) via oral gavage every day for 14 days. On day 15 mice were euthanized and brain/plasma collected for analysis. For single dose PK studies, 5-week-old C57BL/J6 mice (n=5 mice/group, Taconic Farms, Germantown, N.Y.) received a single 100 mg/kg dose (oral gavage) of AdDNJ and groups euthanized at 0.5, 1, 2, 4, 8, 16, 24 and 48 hours post dose for brain and plasma analysis. Whole brain tissue (10-15 mg) was homogenized in 1 mL of pH 5 lysis buffer for measuring beta-hexosaminidase activity as described above. AdDNJ levels were measured in plasma and brain samples using LC-MS/MS.

[3] = test system: Dutch APP^E693Q transgenic mice; experiment: Contextual and cued fear conditioning; type: in vivo; settings: 3-month course, 3-100 mg/kg
Experimental: as §1, with “One half was snap-frozen on dry ice and stored at −80° C. for biochemistry; the other half was post-fixed in 4% paraformaldehyde then sagittally sectioned on a vibratome into 30 μm sections and stored at 4° C. in storage buffer until histological analyses.” left out
Contextual and cued fear conditioning was assessed using the ANY-Maze fear conditioning system (Stoelting Co., Wood Dale, Ill., USA) as previously described in Steele, J. W., et al. Early fear memory defects are associated with altered synaptic plasticity and molecular architecture in the TgCRND8 Alzheimer's disease mouse model. […]

O-GlcNAcase = biological target: T2, O-GlcNAcase (Homo sapiens, UniProt O60502); experiment: Cellular O-GlcNAcase activity (protein O-GlcNAc Western blot) in fibroblasts and SH-SY5Y cells; type: cell-based; settings: concentrations up to 100 μM
T2 construct: host or cells: wild-type fibroblasts AG07059 and SH-SY5Y cells
T2 sequence (O60502 1-916): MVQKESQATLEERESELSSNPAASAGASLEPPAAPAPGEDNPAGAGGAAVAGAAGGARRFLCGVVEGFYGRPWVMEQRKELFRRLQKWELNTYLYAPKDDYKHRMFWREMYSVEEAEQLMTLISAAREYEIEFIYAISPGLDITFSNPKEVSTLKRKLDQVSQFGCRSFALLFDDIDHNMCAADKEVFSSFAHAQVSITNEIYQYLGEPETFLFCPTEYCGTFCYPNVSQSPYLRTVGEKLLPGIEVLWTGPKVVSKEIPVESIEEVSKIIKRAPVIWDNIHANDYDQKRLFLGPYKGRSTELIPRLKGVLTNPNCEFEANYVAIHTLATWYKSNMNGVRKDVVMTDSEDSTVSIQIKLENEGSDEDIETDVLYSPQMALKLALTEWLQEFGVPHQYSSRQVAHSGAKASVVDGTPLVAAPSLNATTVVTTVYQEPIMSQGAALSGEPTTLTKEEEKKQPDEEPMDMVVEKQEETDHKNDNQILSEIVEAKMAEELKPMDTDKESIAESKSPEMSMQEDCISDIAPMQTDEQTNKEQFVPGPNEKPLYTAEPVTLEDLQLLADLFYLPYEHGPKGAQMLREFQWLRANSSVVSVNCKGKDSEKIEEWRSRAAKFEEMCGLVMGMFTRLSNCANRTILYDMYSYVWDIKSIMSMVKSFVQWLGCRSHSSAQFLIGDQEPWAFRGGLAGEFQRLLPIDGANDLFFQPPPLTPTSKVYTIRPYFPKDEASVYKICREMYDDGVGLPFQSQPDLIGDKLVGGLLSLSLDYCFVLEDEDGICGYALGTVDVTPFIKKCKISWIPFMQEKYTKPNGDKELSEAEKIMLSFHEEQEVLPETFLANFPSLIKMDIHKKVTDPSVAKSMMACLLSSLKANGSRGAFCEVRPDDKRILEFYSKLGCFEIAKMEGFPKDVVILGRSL
Experimental: Effect of AdDNJ on cellular O-GlcNAcase activity was tested in both wild-type fibroblast (AG07059, Coriell) and SH-SY5Y cells. Fibroblasts were incubated with or without 10 μM AdDNJ or Thiamet G in complete media for 24 h at 37° C. in a humidified 8% CO2 incubator. For SH-SY5Y cells, multiple concentrations (0 μM to 100 μM) of AdDNJ and Thiamet G were used. Cell pellets were lysed in RIPA buffer and total protein-associated O-GlcNAc level was measured using Western blot. Briefly, 40 μg total protein was separated, transferred to PVDF and probed with an anti O-GlcNAc antibody (18B10.C7, Pierce). Chemiluminescence was imaged using an Alpha Innotech FluoroChem Q imager and quantified by densitometry using AlphaView SA software (Alpha Innotech). The blots were stripped and re-probed with an anti-calnexin antibody (ab22595, Abcam). For O-GlcNAc quantification, whole lane O-GlcNAc densitometry was background subtracted and normalized to the calnexin load control band.

For CC(=O)NC1CNC(CO)[C@@H](O)C1O (stereo partly shown) [AdDNJ, 2-acetamido-1,2-dideoxynojirimycin], which Ki (β-hex; pH 5) is on record?
The Ki was 0.253 µM.

And the Ki (β-hex; pH 7)?
The Ki was 0.342 µM.

And the “GAβ immunoreactivity, CA1 region of the hippocampus” value [1]?
Its value is “did not reach significance”.

And the “GAβ immunoreactivity, lateral entorhinal cortex” value [1]?
Its value is “trend toward reduction”.

What about the “GAβ immunoreactivity, perirhinal cortex” value [1] of the same molecule?
The value was “striking quantitative reduction”.

And the “GAβ immunoreactivity, subiculum” value [1]?
The value was “striking quantitative reduction”.

And the “GAβ immunoreactivity, visual cortex” value [1]?
Its value is “did not reach significance”.

What about the bioavailability ([2]; qualitative statement) of the same molecule?
Its bioavailability is “good bioavailability”.

What about the “AdDNJ level reached in brain” value ([2]; single 100 mg/kg dose) of the same molecule?
Its value is over 342 nM.

And the “blood brain barrier penetration” value ([2]; single 100 mg/kg oral gavage)?
The value was “crossed the BBB”.

And the “time for brain level to drop below Ki for β-hex at pH 5 (253 nM)” value ([2]; single 100 mg/kg oral gavage)?
Its value is at most 16 hours.

What about the “contextual or cued fear conditioning” value [3] of the same molecule?
The value was “no effect”.

What about the “inhibition of O-GlcNAcase” value (O-GlcNAcase) of the same molecule?
Its value is “did not inhibit”.
